According to patent publication US20250066366A1, “Crystal form of isobutyrate nucleoside compound, and preparation method” (Shenzhen AntiV Pharma Co., Ltd., priority 2021, published 2025):
In brackets after ≈: the same amount, converted by molar mass. Where two headings read alike, the source gives them in different places. Marks after values point to notes of the source that are not given here.

How the values were obtained:
Format in all cases: physicochemical
[1] = Dynamic water vapor adsorption detection of crystalline form III
[2] = Grinding experiment of crystalline form III (XRPD after manual grinding); conditions: ground manually with mortar and pestle for 5 minutes
From the text: (§1) X-ray powder diffraction patterns were collected on a PANalytical Empyrean X-ray diffractometer of the Netherlands equipped with a transmission-reflection sample stage with an automated 3*15 zero background sample holder. The radiation source used was (Cu, kα, Kα1 (Å): 1.540598; Kα2 (Å): 1.544426; Kα2/Kα1 intensity ratio: 0.50), wherein the voltage was set at 45 KV and the current was set at 40 mA. The beam divergence of the X-rays, i.e. the effective size of the X-ray confinement on the sample, was 6.6 mm. The continuous scanning mode of θ-θ was adopted, and an effective 2θ range of 3° to 40° was obtained. A proper amount of sample was placed at the position of the circular groove of the zero-background sample rack under the environmental condition (about 18° C. to 32° C.), the sample was lightly pressed with a clean glass slide to obtain a flat plane, and the zero-background sample rack was fixed. The samples were scanned at a scan step of 0.013° in the range of 3° to 40° 2θ±0.2° to obtain a traditional X-ray powder diffraction pattern.
Crystalline form III was ground manually with a mortar and pestle for 5 minutes, and XRPD of the ground solid was tested.

[3] = Solid state stability test (XRPD and HPLC); conditions: for Purity-1 week (Peak area %): HPLC, initial purity 99.71%; for Crystal-1 week: XRPD
From the text: as §1
The instrument used for liquid chromatography analysis is Agilent HPLC 1260 series, which is used for the analysis of solid-state stability of samples.
A certain amount of crystalline form III of compound A as a sample was placed under conditions of 40° C./75% RH (open) and 60° C. (closed) for one week, and XRPD and HPLC of the sample were tested.

[4] = Solubility test in biological media (SGF, FaSSIF, FeSSIF) and water at 37° C.; conditions: for pH (24 h): solution pH after 24 h; for solubility at 0.5 h: read-out: Solubility (mg/mL) 0.5 h; for solubility at 2 h: read-out: Solubility (mg/mL) 2 h; for solubility at 24 h: read-out: Solubility (mg/mL) 24 h
Protocol: Crystalline form III has the highest solubility in SGF (>7 mg/mL). The solubility in pure water, FeSSIF, and FaSSIF were all greater than 1 mg/mL.

With `CC(C)C(=O)OC[C@H]1O[C@@](C#N)(c2ccc3c(N)ncnn23)[C@H](O)[C@@H]1O` [crystalline form III, ((2R,3S,4R,5R)-5-(4-aminopyrrolo[2,1-f][1,2,4]triazin-7-yl)-5-cyano-3,4-dihydroxytetrahydrofuran-2-yl) methyl isobutyrate] as the compound, how does the weight gain ([1]; 80% RH and 25° C.) read?
The weight gain was “less than 0.2%”.

And the “crystalline form after testing” value ([1]; after dynamic water vapor adsorption test)?
Its value is “did not change”.

And the hygroscopicity ([1]; dynamic water vapor adsorption test)?
Its hygroscopicity is “does not have hygroscopicity”.

What about the “crystalline structure after grinding (XRPD)” value [2] of the same compound?
The value was “did not change”.

What about the “Purity-1 week (Peak area %)” value ([3]; 40° C./75% RH, open, listed as Sample 1) of the same compound?
Its value is 99.68%.

And the “Purity-1 week (Peak area %)” value ([3]; 40° C./75% RH, open, listed as Sample 2)?
The value was 99.71%.

What about the Crystal-1 week ([3]; 40° C./75% RH, open) of the same compound?
Its Crystal-1 week is “No change”.

And the “Purity-1 week (Peak area %)” value ([3]; 60° C. & closed, listed as Sample 1)?
Its value is 99.71%.

What about the “Purity-1 week (Peak area %)” value ([3]; 60° C. & closed, listed as Sample 2) of the same compound?
The value was 99.65%.

And the Crystal-1 week ([3]; 60° C. & closed)?
The Crystal-1 week was “No change”.

What about the “physical and chemical stability” value ([3]; two acceleration conditions (40° C./75% RH open, 60° C. closed) for 14 days) of the same compound?
Its value is “physically and chemically stable”.

What about the “pH (24 h)” value ([4]; FaSSIF (pH = 6.53)) of the same compound?
Its value is 6.50.

What about the “pH (24 h)” value ([4]; FeSSIF (pH = 4.97)) of the same compound?
Its value is 4.96.

And the “Solubility (mg/mL)” value ([4]; SGF (pH = 1.20), 0.5 h, 2 h, 24 h, visual observation)?
Its value is >7* mg/mL.

And the “pH (24 h)” value ([4]; SGF (pH = 1.20))?
The value was 1.37.

What about the “change in solution pH after the solubility test” value ([4]; SGF, FaSSIF, FeSSIF and water) of the same compound?
The value was “no significant change”.

And the “pH (24 h)” value ([4]; Water (pH = 6.67))?
The value was 6.43.

And the solubility ([4]; pH 1.2, simulated gastric fluid, thermodynamic from solid, SGF (pH = 1.20), 0.5 h, 2 h, 24 h, visual observation)?
The solubility was > 7000 µg/mL.

And the solubility ([4]; pH 4.97, thermodynamic from solid, FeSSIF)?
Its solubility is > 1000 µg/mL.

And the solubility ([4]; pH 6.53, thermodynamic from solid, FaSSIF)?
The solubility was > 1000 µg/mL.

And the solubility ([4]; pH 6.67, thermodynamic from solid, pure water)?
The solubility was > 1000 µg/mL.

And the “XRPD (24 h)” value ([4]; solid after 24 h in FaSSIF (pH = 6.53))?
Its value is “Crystalline”.

And the “XRPD (24 h)” value ([4]; solid after 24 h in FeSSIF (pH = 4.97))?
Its value is “Crystalline”.

What about the “XRPD (24 h)” value ([4]; solid after 24 h in Water (pH = 6.67)) of the same compound?
Its value is “Crystalline”.

What about the solubility at 0.5 h ([4]; thermodynamic from solid, FaSSIF (pH = 6.53), 0.5 h) of the same compound?
Its solubility at 0.5 h is 1.22 mg/mL (≈ 3.38 mM).

What about the solubility at 2 h ([4]; thermodynamic from solid, FaSSIF (pH = 6.53), 2 h) of the same compound?
Its solubility at 2 h is 1.26 mg/mL (≈ 3.49 mM).

What about the solubility at 24 h ([4]; thermodynamic from solid, FaSSIF (pH = 6.53), 24 h) of the same compound?
The solubility at 24 h was 1.19 mg/mL (≈ 3.29 mM).

And the solubility at 0.5 h ([4]; thermodynamic from solid, FeSSIF (pH = 4.97), 0.5 h)?
Its solubility at 0.5 h is 1.63 mg/mL (≈ 4.51 mM).

What about the solubility at 2 h ([4]; thermodynamic from solid, FeSSIF (pH = 4.97), 2 h) of the same compound?
The solubility at 2 h was 1.66 mg/mL (≈ 4.59 mM).

What about the solubility at 24 h ([4]; thermodynamic from solid, FeSSIF (pH = 4.97), 24 h) of the same compound?
The solubility at 24 h was 1.68 mg/mL (≈ 4.65 mM).

What about the solubility at 0.5 h ([4]; thermodynamic from solid, Water (pH = 6.67), 0.5 h) of the same compound?
The solubility at 0.5 h was 1.11 mg/mL (≈ 3.07 mM).

What about the solubility at 2 h ([4]; thermodynamic from solid, Water (pH = 6.67), 2 h) of the same compound?
Its solubility at 2 h is 1.22 mg/mL (≈ 3.38 mM).

And the solubility at 24 h ([4]; thermodynamic from solid, Water (pH = 6.67), 24 h)?
Its solubility at 24 h is 1.24 mg/mL (≈ 3.43 mM).
